{
  "source": "patent US7141592B2",
  "about": "“Substituted oxadiazolidinediones” (Wyeth, priority 2003, dated 2006)",
  "data": [
    {"biological_target": "T1, recombinant human plasminogen activator inhibitor-1 (PAI-1) (Homo sapiens, UniProt P05121)", "T1 construct": "purchased Molecular Innovations, Royal Oak, Mich", "T1 sequence (P05121 24-402)": "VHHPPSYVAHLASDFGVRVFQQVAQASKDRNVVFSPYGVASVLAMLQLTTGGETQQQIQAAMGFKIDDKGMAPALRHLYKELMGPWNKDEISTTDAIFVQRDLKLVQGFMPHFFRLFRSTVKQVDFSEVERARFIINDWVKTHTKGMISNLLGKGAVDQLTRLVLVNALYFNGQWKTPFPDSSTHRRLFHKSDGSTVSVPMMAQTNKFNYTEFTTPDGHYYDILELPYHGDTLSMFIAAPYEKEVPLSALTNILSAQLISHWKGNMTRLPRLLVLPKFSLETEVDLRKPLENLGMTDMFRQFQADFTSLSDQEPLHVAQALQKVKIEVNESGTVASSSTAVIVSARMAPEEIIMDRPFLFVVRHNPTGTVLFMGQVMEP", "assay": "Primary screen for the PAI-1 inhibition (chromogenic tPA activity, Spectrozyme-tPA)", "format": "biochemical", "conditions": "compound at 100 μM", "experimental": "Test compounds are dissolved in DMSO at a final concentration of 10 mM, then diluted 100× in physiologic buffer. The inhibitory assay is initiated by the addition of the substituted oxadiazolidinedione (1–100 μM final concentration, maximun DMSO concentration of 0.2%) in a pH 6.6 buffer containing 140 nM recombinant human plasminogen activator inhibitor-1 (PAI-1; Molecular Innovations, Royal Oak, Mich.). Following a 1 hour incubation at room temperature, 70 nM of recombinant human tissue plasminogen activator (tPA) is added, and the combination of the substituted oxadiazolidinedione, PAI-1 and tPA is incubated for an additional 30 minutes. Following the second incubation, Spectrozyme-tPA (American Diagnostica, Greenwich, Conn.), a chromogenic substrate for tPA, is added and absorbance read at 405 nm at 0 and 60 minutes. Relative PAI-1 inhibition is equal to the residual tPA activity in the presence of the test compound and PAI-1. Control treatments include the complete inhibition of tPA by PAI-1 at the molar ratio employed (2:1), and the absence of any effect of the substituted oxadiazolidinedione on tPA alone.", "units": {"inhibition at 100 µM": "%", "% Inhibition @ 100 μM": "%"}, "values": [
      {"compound": "O=c1[nH]c(=O)n(Cc2ccc(-c3ccc(OCc4cccc(Br)c4)cc3)cc2)o1", "note": "[Compound 55, 2-({4′-[(3-bromobenzyl)oxy]-1,1′-biphenyl-4-yl}methyl)-1,2,4-oxadiazolidine-3,5-dione]", "inhibition at 100 µM": 41},
      {"compound": "O=c1[nH]c(=O)n(Cc2cccc(-c3cccc(OCc4cc(C(F)(F)F)cc(C(F)(F)F)c4)c3)c2)o1", "note": "[Compound 38, 2-[(3′-{[3,5-bis(trifluoromethyl)benzyl]oxy}-1,1′-biphenyl-3-yl)methyl]-1,2,4-oxadiazolidine-3,5-dione]", "inhibition at 100 µM": 69},
      {"compound": "2-{[5-(phenylethynyl)thien-2-yl]methyl}-1,2,4-oxadiazolidine-3,5-dione [Compound 59]", "% Inhibition @ 100 μM": 60},
      {"compound": "O=c1[nH]c(=O)n(Cc2ccc(OCc3ccc(C(F)(F)F)cc3)c(OCc3ccc(C(F)(F)F)cc3)c2)o1", "note": "[Compound 86, 2-(3,4-bis{[4-(trifluoromethyl)benzyl]oxy}benzyl)-1,2,4-oxadiazolidine-3,5-dione]", "inhibition at 100 µM": 94},
      {"compound": "O=c1[nH]c(=O)n(Cc2ccc(C#CCOc3cc(Cl)cc(Cl)c3)cc2)o1", "note": "[Compound 62, 2-{4-[3-(3,5-dichlorophenoxy)prop-1-ynyl]benzyl}-1,2,4-oxadiazolidine-3,5-dione]", "inhibition at 100 µM": 82},
      {"compound": "C=CCn1cc(Cn2oc(=O)[nH]c2=O)c2cc(OCc3cc(C(F)(F)F)cc(C(F)(F)F)c3)ccc21", "note": "[Compound 5, 2-[(1-allyl-5-{[3,5-bis(trifluoromethyl)benzyl]oxy}-1H-indol-3-yl)methyl]-1,2,4-oxadiazolidine-3,5-dione]", "inhibition at 100 µM": 100},
      {"compound": "O=c1[nH]c(=O)n(Cc2cccc(OCc3cccc(Cl)c3)c2OCc2cccc(Cl)c2)o1", "note": "[Compound 83, 2-{2,3-bis[(3-chlorobenzyl)oxy]benzyl}-1,2,4-oxadiazolidine-3,5-dione]", "inhibition at 100 µM": 95},
      {"compound": "O=c1[nH]c(=O)n(Cc2cccc(-c3cccc(OCc4ccccc4Cl)c3)c2)o1", "note": "[Compound 36, 2-({3′-[(2-chlorobenzyl)oxy]-1,1′-biphenyl-3-yl}methyl)-1,2,4-oxadiazolidine-3,5-dione]", "inhibition at 100 µM": 100},
      {"compound": "C=CCn1cc(Cn2oc(=O)[nH]c2=O)c2cc(OCc3cccc(Br)c3)ccc21", "note": "[Compound 27, 2-({1-allyl-5-[(3-bromobenzyl)oxy]-1H-indol-3-yl}methyl)-1,2,4-oxadiazolidine-3,5-dione]", "inhibition at 100 µM": 100},
      {"compound": "O=c1[nH]c(=O)n(Cc2cn(Cc3ccccc3)c3ccc(OCc4ccc(Cl)c(Cl)c4)cc23)o1", "note": "[Compound 19, 2-({1-benzyl-5-[(3,4-dichlorobenzyl)oxy]-1H-indol-3-yl}methyl)-1,2,4-oxadiazolidine-3,5-dione]", "inhibition at 100 µM": 79},
      {"compound": "C=CCn1cc(Cn2oc(=O)[nH]c2=O)c2cc(OCc3ccc4ccccc4c3)ccc21", "note": "[Compound 21, 2-{[1-allyl-5-(2-naphthylmethoxy)-1H-indol-3-yl]methyl}-1,2,4-oxadiazolidine-3,5-dione]", "inhibition at 100 µM": 98},
      {"compound": "2-{3-[3-(4-isobutylphenoxy)prop-1-ynyl]benzyl}-1,2,4-oxadiazolidine-3,5-dione [Compound 70]", "% Inhibition @ 100 μM": 76},
      {"compound": "COc1cc(Cn2oc(=O)[nH]c2=O)cc(OCc2ccc(C(F)(F)F)cc2)c1OCc1ccc(C(F)(F)F)cc1", "note": "[Compound 76, 2-(3-methoxy-4,5-bis{[4-(trifluoromethyl)benzyl]oxy}benzyl)-1,2,4-oxadiazolidine-3,5-dione]", "inhibition at 100 µM": 95},
      {"compound": "O=c1[nH]c(=O)n(Cc2cccc(C#CCOc3cc(Cl)cc(Cl)c3)c2)o1", "note": "[Compound 68, 2-{3-[3-(3,5-dichlorophenoxy)prop-1-ynyl]benzyl}-1,2,4-oxadiazolidine-3,5-dione]", "inhibition at 100 µM": 93},
      {"compound": "O=c1[nH]c(=O)n(Cc2cn(Cc3ccccc3)c3ccc(OCc4ccc(Br)cc4)cc23)o1", "note": "[Compound 14, 2-({1-benzyl-5-[(4-bromobenzyl)oxy]-1H-indol-3-yl}methyl)-1,2,4-oxadiazolidine-3,5-dione]", "inhibition at 100 µM": 100},
      {"compound": "O=c1[nH]c(=O)n(Cc2ccc(OCc3cccc(Cl)c3)c(OCc3cccc(Cl)c3)c2)o1", "note": "[Compound 88, 2-{3,4-bis[(3-chlorobenzyl)oxy]benzyl}-1,2,4-oxadiazolidine-3,5-dione]", "inhibition at 100 µM": 91},
      {"compound": "CCn1cc(Cn2oc(=O)[nH]c2=O)c2cc(OCc3ccc(C(C)(C)C)cc3)ccc21", "note": "[Compound 3, 2-({5-[(4-tert-butylbenzyl)oxy]-1-ethyl-1H-indol-3-yl}methyl)-1,2,4-oxadiazolidine-3,5-dione]", "inhibition at 100 µM": 9},
      {"compound": "O=c1[nH]c(=O)n(Cc2cccc(-c3cccc(OCc4ccc5ccccc5c4)c3)c2)o1", "note": "[Compound 44, 2-{[3′-(2-naphthylmethoxy)-1,1′-biphenyl-3-yl]methyl}-1,2,4-oxadiazolidine-3,5-dione]", "inhibition at 100 µM": 28},
      {"compound": "O=c1[nH]c(=O)n(Cc2ccc(OCc3cccc(Br)c3)c(OCc3cccc(Br)c3)c2)o1", "note": "[Compound 89, 2-{3,4-bis[(3-bromobenzyl)oxy]benzyl}-1,2,4-oxadiazolidine-3,5-dione]", "inhibition at 100 µM": 88},
      {"compound": "Cc1cccc(COc2ccc(Cn3oc(=O)[nH]c3=O)cc2OCc2cccc(C)c2)c1", "note": "[Compound 87, 2-{3,4-bis[(3-methylbenzyl)oxy]benzyl}-1,2,4-oxadiazolidine-3,5-dione]", "inhibition at 100 µM": 92},
      {"compound": "O=c1[nH]c(=O)n(Cc2cn(Cc3ccccc3)c3ccc(OCc4ccc5ccccc5c4)cc23)o1", "note": "[Compound 22, 2-{[1-benzyl-5-(2-naphthylmethoxy)-1H-indol-3-yl]methyl}-1,2,4-oxadiazolidine-3,5-dione]", "inhibition at 100 µM": 92},
      {"compound": "2-[(4′-{[3,5-bis(trifluoromethyl)benzyl]oxy}-1,1′-biphenyl-3-yl)methyl]-1,2,4-oxadiazolidine-3,5-dione [Compound 51]", "% Inhibition @ 100 μM": 65},
      {"compound": "2-({4′-[(4-bromobenzyl)oxy]-1,1′-biphenyl-3-yl}methyl)-1,2,4-oxadiazolidine-3,5-dione [Compound 50]", "% Inhibition @ 100 μM": 41},
      {"compound": "C#CCn1cc(Cn2oc(=O)[nH]c2=O)c2cc(OCc3cc(C(F)(F)F)cc(C(F)(F)F)c3)ccc21", "note": "[Compound 15, 2-{[5-{[3,5-bis(trifluoromethyl)benzyl]oxy}-1-(2-propynyl)-1H-indol-3-yl]methyl}-1,2,4-oxadiazolidine-3,5-dione]", "inhibition at 100 µM": 91},
      {"compound": "O=c1[nH]c(=O)n(Cc2ccc(C#Cc3ccccc3)cc2)o1", "note": "[Compound 56, 2-[4-(phenylethynyl)benzyl]-1,2,4-oxadiazolidine-3,5-dione]", "inhibition at 100 µM": 65},
      {"compound": "CC(C)(C)c1ccc(COc2cccc(-c3ccc(Cn4oc(=O)[nH]c4=O)cc3)c2)cc1", "note": "[Compound 53, 2-({3′-[(4-tert-butylbenzyl)oxy]-1,1′-biphenyl-4-yl}methyl)-1,2,4-oxadiazolidine-3,5-dione]", "inhibition at 100 µM": 60},
      {"compound": "2-({4′-[(4-tert-butylbenzyl)oxy]-1,1′-biphenyl-3-yl}methyl)-1,2,4-oxadiazolidine-3,5-dione [Compound 48]", "% Inhibition @ 100 μM": 23},
      {"compound": "O=c1[nH]c(=O)n(Cc2cccc(C#CCOc3cc(C(F)(F)F)cc(C(F)(F)F)c3)c2)o1", "note": "[Compound 67, 2-(3-{3-[3,5-bis(trifluoromethyl)phenoxy]prop-1-ynyl}benzyl)-1,2,4-oxadiazolidine-3,5-dione]", "inhibition at 100 µM": 84},
      {"compound": "C=CCn1cc(Cn2oc(=O)[nH]c2=O)c2cc(OCc3ccccc3Cl)ccc21", "note": "[Compound 33, 2-({1-allyl-5-[(2-chlorobenzyl)oxy]-1H-indol-3-yl}methyl)-1,2,4-oxadiazolidine-3,5-dione]", "inhibition at 100 µM": 91},
      {"compound": "C=CCn1cc(Cn2oc(=O)[nH]c2=O)c2cc(OCc3ccc(C(C)(C)C)cc3)ccc21", "note": "[Compound 2, 2-({1-allyl-5-[(4-tert-butylbenzyl)oxy]-1H-indol-3-yl}methyl)-1,2,4-oxadiazolidine-3,5-dione]", "inhibition at 100 µM": 100},
      {"compound": "Cc1cccc(COc2ccc3c(c2)c(Cn2oc(=O)[nH]c2=O)cn3Cc2ccccc2)c1", "note": "[Compound 11, 2-({1-benzyl-5-[(3-methylbenzyl)oxy]-1H-indol-3-yl}methyl)-1,2,4-oxadiazolidine-3,5-dione]", "inhibition at 100 µM": 59},
      {"compound": "O=c1[nH]c(=O)n(Cc2cccc(OCc3ccc(C(F)(F)F)cc3)c2OCc2ccc(C(F)(F)F)cc2)o1", "note": "[Compound 81, 2-(2,3-bis{[4-(trifluoromethyl)benzyl]oxy}benzyl)-1,2,4-oxadiazolidine-3,5-dione]", "inhibition at 100 µM": 92},
      {"compound": "2-{4-[3-(4-isobutylphenoxy)prop-1-ynyl]benzyl}-1,2,4-oxadiazolidine-3,5-dione [Compound 64]", "% Inhibition @ 100 μM": 65},
      {"compound": "2-[(3′-{[4-(trifluoromethyl)benzyl]oxy}-1,1′-biphenyl-3-yl)methyl]-1,2,4-oxadiazolidine-3,5-dione [Compound 37]", "% Inhibition @ 100 μM": 3},
      {"compound": "C=CCn1cc(Cn2oc(=O)[nH]c2=O)c2cc(OCc3cccc(C(F)(F)F)c3)ccc21", "note": "[Compound 29, 2-[(1-allyl-5-{[3-(trifluoromethyl)benzyl]oxy}-1H-indol-3-yl)methyl]-1,2,4-oxadiazolidine-3,5-dione]", "inhibition at 100 µM": 79},
      {"compound": "O=c1[nH]c(=O)n(Cc2cn(Cc3ccccc3)c3ccc(OCc4cc(C(F)(F)F)cc(C(F)(F)F)c4)cc23)o1", "note": "[Compound 7, 2-[(1-benzyl-5-{[3,5-bis(trifluoromethyl)benzyl]oxy}-1H-indol-3-yl)methyl]-1,2,4-oxadiazolidine-3,5-dione]", "inhibition at 100 µM": 94},
      {"compound": "O=c1[nH]c(=O)n(Cc2cccc(C#CCOc3cccc(Cl)c3)c2)o1", "note": "[Compound 69, 2-{3-[3-(3-chlorophenoxy)prop-1-ynyl]benzyl}-1,2,4-oxadiazolidine-3,5-dione]", "inhibition at 100 µM": 85}
    ]}
  ]
}
